Experimental data from a melting point compilation (Tetko et al.; mined from patent text by program, amines drawn as free bases though some values may be those of a salt).

Compound	melting point [°C]
CCOC(=O)c1c(N)nc(-c2ccc([N+](=O)[O-])cc2)c([N+](=O)[O-])c1C(=O)OCC	148 to 150
COc1ccc(C(=O)Nc2ccncc2)c2c1oc1ccc(C(F)(F)F)cc12	259
CNS(=O)(=O)c1ccc2c3c(cc([N+](=O)[O-])c2c1)N(C(=O)c1cc2cc(OCCN(C)C)ccc2[nH]1)CC3CCl (configuration not stated)	> 350
Cc1cc(Oc2ncc(C(F)(F)F)cc2Cl)nn1C(=S)NCc1ccc(Cl)cc1	119 to 121
CN[C@H]1CCN(c2c(F)cc3c(=O)n(NC)c(=O)n(C4CC4)c3c2Cl)C1	77 to 79
COc1ccc(-c2ncn(C)c2-c2ccc(OC)cc2)cc1	122
CC(=O)N(C)Cc1cc2c(-c3ccccc3)c(CC(=O)Nc3ccc(Cl)cc3C(F)(F)F)c(=O)oc2cc1Cl	199 to 201
Cc1sc2cc(C3=NCCS3)[nH]c2c1N(C)S(=O)(=O)c1cccs1	140
FC(F)(F)c1cc(C(F)(F)F)n(-c2ccc(NCc3ccccc3Cl)cc2)n1	240
CN1C=C2C=C(S)N=CN2N1	> 300
O=C1CCC2=C(CCCC2)N1	143 to 144
O=c1ccoc2cc(OCCn3ccnc3)ccc12	131 to 133
CCCCCCCCCCCCNC(=O)CS(=O)(=O)Nc1c(C(C)C)cccc1C(C)C	83 to 85
CCCCCCCCCCc1ccc2ccc(C)c(O)c2c1	65 to 67
N#CCOc1ccc2cc(-c3cc4ccccc4s3)ccc2c1Br	179 to 181
Cc1ncc2n1-c1ccc(Cl)cc1C(c1ccccc1F)NC2 (configuration not stated)	200 to 203
CC(c1oc2ccccc2c(=O)c1-c1cccc(F)c1)n1nc(-c2cccc(C(=O)N3CCOCC3)c2)c2c(N)ncnc21 (configuration not stated)	104 to 106
CC(=O)NC(Cc1c[nH]c2ccccc12)C(=O)NCc1cc(C(F)(F)F)cc(C(F)(F)F)c1 (configuration not stated)	171 to 173
CCC1(CC)OC(c2ccc(S(C)(=O)=O)cc2)=C(Br)C1=O	130 to 131
O=C(OCc1ccccc1)C1N2C(=O)C(NC(c3ccccc3)(c3ccccc3)c3ccccc3)C2SC12CCN(c1ccccc1)CC2 (configuration not stated)	200 to 201
CC(C#N)=C1CCN(c2ccc(N3CC(COc4ccon4)OC3=O)cc2F)CC1 (configuration not stated)	137 to 138
CN1C(=O)C=C(c2ccc([N+](=O)[O-])cc2)C1=O	163 to 166

Compound	melting point [°C]
COc1cc(F)ccc1Oc1c(Cl)nc(-c2ncccn2)nc1NS(=O)(=O)c1ccc(C(C)(C)C)cc1	225 to 227
COc1ccc(F)cc1N1CCN([C@H]2CC[C@@H](c3c[nH]c4ccc(F)cc43)CC2)CC1	152 to 153
CNc1nn(-c2ccc(C)c3c2OC(C)(C)C3)c(=O)o1	183 to 184
Cc1nc2c(N)nc3ccccc3c2n1CCCC1(C)OCCO1	193 to 195
O=C(NCCC1CCCCC1)c1c(Cl)ccc2nc(N3CCC(C(=O)O)CC3)ccc12	253 to 256
COc1c(Cl)c(-c2nnc(C)s2)cc2oc(=O)c(C)c(C)c12	209 to 210
Cn1cc(C(=O)NCc2ccc(Cl)cc2)c(=O)c2cc(CN3CCOCC3)cc(F)c21	187 to 189
CN(c1ccccc1-c1ccc2cnc(Nc3ccc(C4CCN(CC(N)=O)CC4)cc3)nn12)S(C)(=O)=O	170
CS(=O)c1cccc(S(N)(=O)=O)c1 (configuration not stated)	217 to 221
CC(=O)N=C(N(C)C(C)=O)N(C)C1CCN(c2nc3ccccc3n2Cc2ccc(F)cc2)CC1	176
Cn1cncc1C(O)(c1ccc(I)cc1)c1ccc2c(c1)c(-c1cccc(Cl)c1)cc(=O)n2C (configuration not stated)	197
Nc1nc(NCCO)c2ncn(C3C=CC(CO)C3)c2n1 (configuration not stated)	150 to 152
COc1cnc(Cl)c(C(=O)O)c1	169 to 170
CC=CC=CC(=O)n1c(N)nc2ccccc21	215
Cc1cc(N)ccc1N=Nc1ccc([N+](=O)[O-])cc1	152
Cn1c(=O)ccc2cc(-c3cccnc3)ccc21	116 to 118
CC1SC(=O)NN=C1c1ccc2c(c1)C(=Cc1ccccc1[N+](=O)[O-])C(=O)N2 (configuration not stated)	258
CCCCOc1ccccc1-c1nc(Cl)cc(OCCC(C)C)n1	47 to 50
CCC1(CC)c2cc(-c3nc4ccccc4s3)ccc2-c2ccc(N(c3ccc(Oc4ccc([N+](=O)[O-])cc4)cc3)c3ccc(Oc4ccc([N+](=O)[O-])cc4)cc3)cc21	223 to 225
O=C1NC(=S)NC1=Cc1cc(O)c(O)c([N+](=O)[O-])c1	> 350
CC1(C)Cc2c(c(N3CCOCC3)nc3sc4c(N(CCN5CCOCC5)Cc5cccnc5)ncnc4c23)CO1	150
CS(=O)(=O)c1ccc(-c2cnn(CC(F)(F)F)c(=O)c2Sc2ccc(F)cc2)cc1	182 to 185

Compound	melting point [°C]
NC(=O)c1cccc(C(N)=O)c1N	284 to 288
Cc1cc(C)nc(N(CCN(C)C)C(N)=O)c1	88 to 89
COCc1cc([N+](=O)[O-])c(Cl)cc1C(=O)Cl	63 to 65
CC(Cl)C(=O)c1ccc2c(c1)CCCC(=O)N2 (configuration not stated)	230
OC(Cn1cncn1)(CC(Cl)(Cl)Cl)c1cc(Cl)cc(Cl)c1 (configuration not stated)	186
CNC(=S)NS(=O)(=O)c1cc2c(cc1OC)OCC(NC(=O)c1cc(F)ccc1OC)C2 (configuration not stated)	221 to 222
CCCc1c(SCCCOc2ccc3c(=O)cc(CCC(=O)O)oc3c2CCC)ccc(C(C)=O)c1O	122 to 124
N#Cc1ccc(-c2ccc(Br)o2)nc1	196
NC[C@@H]1C(=O)N[C@H]1SC(c1ccccc1)(c1ccccc1)c1ccccc1 (relative stereo)	139
O=C(N[C@H](Cc1ccccc1)C(=O)O)OCc1ccc2oc(-c3ccccc3)nc2c1	220 to 221
CC1(C)[C@H](C(=O)O)[C@@H]1C=C1CCSC1=O	162
CS(=O)(=O)Nc1cc(C(c2cc(C#N)ccc2F)S(=O)(=O)c2ccc(Cl)cc2)c(Cl)cn1 (configuration not stated)	118 to 120
COCS(=O)(=O)c1ccc(C(CC2CCCC2)C(=O)O)cc1 (configuration not stated)	184 to 187
Fc1ccc(F)c2c(NCCc3ccc(Oc4ccnc(C(F)(F)F)c4)cc3)ncnc12	95 to 96
CCOC(=O)c1cn(-c2nc(NC(C)(C)C)c(F)cc2F)c2c(Cl)c(F)c(F)c([N+](=O)[O-])c2c1=O	215 to 217
CCCC[C@H](NC(=O)[C@H](CC(C)C)NC(=O)c1c(F)ccc(F)c1F)C(=O)CSCc1ccco1	116 to 117
COc1ccc(Cc2c(N)nc(N)nc2O)cc1OC	268 to 270
OC[C@H]1COc2ccc3scc(Cl)c3c2O1	92 to 93
O=C(Cc1ccccc1)NC1C(=O)N2C1SC1(CCN(Cc3ccccc3)CC1)C2C(=O)OCc1ccccc1 (configuration not stated)	130 to 131
COc1ccc(C2(c3ccc(OC)cc3)CCN(C[C@@H]3C=C4c5cccc6[nH]c(Cl)c(c56)C[C@H]4N(C)C3)CC2)cc1	> 204
COc1cccc(Oc2c(NS(=O)(=O)c3ccc(C(C)(C)C)cc3)ncnc2OCCOc2ncc(C(C)=O)cn2)c1	142 to 144

Continued, values first:

melting point [°C]	Compound
188 to 189	CC(C)(C)c1cc(C(c2ccccc2)N(O)C(N)=O)cc(C(C)(C)C)c1O (configuration not stated)
105 to 108	O=C(O)c1ccc(COc2ccc3c(c2)CCC(CCN2CCCCC2)C3)cc1 (configuration not stated)
153 to 154	CN(C)c1ccc(C=Nn2ccnc2CCc2ccccc2)cc1
85 to 86	O=S(=O)(F)c1ccc2ccccc2c1
221 to 223	O=S(=O)(Nc1nc(O)ncc1F)c1ccccc1
80 to 81	OC1CCc2c1cccc2-n1cccc1 (configuration not stated)
235 to 237	O=C(c1cccs1)c1cnn2c(-c3cccc(F)c3)ccnc12
70 to 72	OC(CNCC1CCCO1)c1ccccc1 (configuration not stated)
98 to 99	CC(C)(C)OC(=O)Oc1cc2c(s1)CCN(C(C(=O)C1CC1)c1ccccc1F)C2 (configuration not stated)
124	O=C1OC(c2ccc(Cl)cc2)c2ccccc21 (configuration not stated)
217 to 218	Cc1ccn2cc(CN3CCN(c4ccc(C(N)=O)cc4)CC3)nc2c1
216 to 217	CC(=O)NC1Cc2ccc(NC(=O)c3ccccc3Br)cc2C1 (configuration not stated)
128 to 132	O=C1COc2cc(NC(=O)C(=O)N3CCC(CCc4ccccc4)CC3)ccc2N1
231 to 232	Cn1c(COc2ccc(CC3SC(=O)NC3=O)cc2)nc2ncccc21 (configuration not stated)
165 to 167	C=CCn1cc(Cn2ccnc2)c2cc(O)ccc21
223 to 226	Nc1nc(N)c2c(n1)CCC(c1ccccc1)C2 (configuration not stated)

melting point [°C]	Compound
150 to 151	CCN(CC)CC1COCCN1CCNC(=O)N1c2ccccc2C(=O)Nc2cccnc21 (configuration not stated)
127 to 129	COc1ccccc1SCC1SCCN1C(=O)CCl (configuration not stated)
179	Cc1cccc(C2=CCN(c3ccc(O)nn3)CC2)c1
213 to 215	O=C(O)Cc1c(C(=O)c2cccc(O)c2)[nH]c2cc(Cl)ccc12
139 to 141	CCOC(=O)OC1=C(c2ccccc2)C(CCC(=O)O)OC1=O (configuration not stated)
217	Cn1c(C(=O)O)cc2c(OCc3ccccc3)cccc21
109 to 111	CCOc1ccc2c(-c3ccccc3)c([N+](=O)[O-])oc2c1
131 to 133	COc1ccc2c(c1)C(=O)C(=Cc1ccccc1)C2
144	CN(c1ccc2ccccc2c1)C(C(=O)O)c1c(Cl)cccc1Cl (configuration not stated)
73 to 77	CC(C)CC(O)c1cccc(NC(=O)OCc2ccccc2)c1 (configuration not stated)
162 to 164	O=C1CC(=Cc2cccc3ccccc23)C(=O)O1
212 to 213	O=C(O)C1CCc2c(c3ccccc3n2C(=O)c2ccc(-c3ccccc3)cc2)C1 (configuration not stated)
67.9	COC(=O)C(Cc1ccc(Cl)cc1Cl)c1ccccc1Cl (configuration not stated)
227 to 228	O=c1nc(-c2cccc(SCc3ccccc3)n2)sc2ccccc12
115 to 117	Cc1ccccc1C(=O)c1ccsc1C(=O)O
71 to 75	Cc1cn(C(C)(C)C(=O)NC(C)(C)C)nc1-c1ccccc1
